Experimental data as given in patent publication US8323627B2, “Monoester of N-undecylenoyl phenylalanine and polyol, method for preparing same, and use of said esters as a skin lightening agent” (Societe d'Exploitation de Produits pour les Industries …, priority 2008, dated 2012).

Key:
[1] = test system: B16/F1 melanocytes; test: Inhibition of extracellular melanin production in B16/F1 melanocyte cultures; assay type: cell-based, Mouse; settings: for % Inhibition of extracellular melanin production relative to the control / Extracellular melanin (control: 98 μg ± 4 μg/ml): 72 hours incubation; for Depigmenting effect (summary in text of Table 1): B16/F1 melanocytes, doses of Table 1
Method: The influence of N-undecylenoyl phenylalanine monoglyceride, arbutin and N-undecylenoyl phenylalanine on the production of extracellular melanin, in B16/F1 melanocyte cultures, was compared.
Mouse melanocytes of the B16/F1 line cultured as monolayers are seeded in 96-well culture plates at a density of 1500 cells/well. The cells are cultured in a culture medium (MCM medium) at 37° C. under a humid atmosphere containing 5% CO2. The cells are used at 50% of confluence. The MCM medium has the following composition: DMEM medium (Dulbecco's Modified Eagle's Medium) containing 4.5 g/l of glucose supplemented with L-glutamine (2 mM), penicillin (50 IU/ml), streptomycin (50 μg/ml) and fetal calf serum (10% v/v). […] The melanocyte cultures are incubated in the presence of the test product or of the reference products for 72 hours at 37° C., under a humid atmosphere containing 5% CO2. Control cultures are incubated, in the absence of product, in the MCM medium. These control cultures are prepared on each culture plate. Each test is performed six times. After incubation for 72 hours, the incubation media of the cells (n=6) are taken up and stored at −80° C. until the time of evaluation of the effects. The extracellular melanin is quantified by spectrophotometry at 450 nm. A melanin calibration range is prepared in parallel. The results are expressed as μg/ml of extracellular melanin and as a percentage of inhibition relative to the control group in Table 1 below.

[2] = test system: B16/F1 melanocytes; test: Cytotoxic effect in B16/F1 melanocyte cultures (Bradford total protein); assay type: cell-based, Mouse; settings: for Cytotoxic effects (summary of Table 2): B16/F1 melanocytes, doses of Table 2; for % Decrease of the total amount of protein relative to the control / Evaluation (cytotoxicity): 72 hours incubation
Method: Study of the Cytotoxic Effect of the Compound of Formula (I) in B16/F1 melanocyte Cultures
Evaluation of the presence of cytotoxic effects is performed using the Bradford technique by staining with Coomassie blue (Bradford M., “A rapid and sensitive method for the quantification of microgram quantities of protein utilizing the principle of protein-dye binding”, Anal. Biochem., 1976, 72, 248-254). The B16/F1 melanocytes are incubated after seeding with the dilutions of the test products. After 72 hours of incubation, the B16/F1 melanocytes are washed and then lyzed, and Bradford's reagent is then added. After incubation for 5 minutes at room temperature, a spectrophotometric reading is taken at 640 nm in parallel with an albumin calibration range. The cytotoxicity is proven for a decrease greater than or equal to 20% of the total amount of protein. The results are expressed as a percentage decrease of the total amount of protein, in Table 2 below.

| SMILES | % Inhibition of extracellular melanin production relative to the control ([1]; test product 40 μg/ml) | Extracellular melanin (control: 98 μg ± 4 μg/ml) ([1]; test product 40 μg/ml, n=6) | Cytotoxic effects (summary of Table 2) [2] | % Decrease of the total amount of protein relative to the control ([2]; test product 40 μg/ml) | % Decrease of the total amount of protein relative to the control ([2]; test product 80 μg/ml) | Depigmenting effect (summary in text of Table 1) [1] | % Inhibition of extracellular melanin production relative to the control ([1]; test product 80 μg/ml) | Extracellular melanin (control: 98 μg ± 4 μg/ml) ([1]; test product 80 μg/ml) | % Decrease of the total amount of protein relative to the control ([2]; test product 60 μg/ml) | % Decrease of the total amount of protein relative to the control ([2]; test product 50 μg/ml) | Evaluation (cytotoxicity) ([2]; test product 50 μg/ml) | Evaluation (cytotoxicity) ([2]; test product 80 μg/ml) |
| --- | --- | --- | --- | --- | --- | --- | --- | --- | --- | --- | --- | --- |
| OC[C@H]1O[C@@H](Oc2ccc(O)cc2)[C@H](O)[C@@H](O)[C@@H]1O [Arbutin, reference compound] | 61% | 39 ± 3 µg/mL |  |  |  |  |  |  |  |  |  |  |
| C=CCCCCCCCCC(=O)NC(Cc1ccccc1)C(=O)OCC(O)CO (stereo not shown) [Compound (A), N-undecylenoyl phenylalanine monoglyceride] | 15% | 84 ± 8 µg/mL | absence of cytotoxic effects | No observed decrease | No observed decrease | depigmenting effect | 58% | 42 ± 1 µg/mL |  |  |  |  |
| C=CCCCCCCCCC(=O)NC(Cc1ccccc1)C(=O)OCC(O)COCC(O)CO (stereo not shown) [Compound (B), N-undecylenoyl phenylalanine diglyceryl ester] |  |  | absence of cytotoxic effects |  | No observed decrease | depigmenting effect | 34% | 54 ± 3 µg/mL | No observed decrease |  |  |  |
| C=CCCCCCCCCC(=O)N[C@@H](Cc1ccccc1)C(=O)O [N-Undecylenoyl phenylalanine, N-undecylenoyl phenylalanine] | 40% | 59 ± 3 µg/mL | cytotoxic |  | 80% |  | Cytotoxicity | Cytotoxicity |  | 32% | Cytotoxic (The cytotoxicity is proven for a decrease greater than or equal to 20% of the total amount of protein) | Cytotoxic (The cytotoxicity is proven for a decrease greater than or equal to 20% of the total amount of protein) |
